# Laboratory results as given in patent US9371317B2, “Sweet flavor modifier” (SENOMYX, INC., priority 2013, dated 2016).
# Experiments:
# human panelists [1] = assay: Sweetness threshold: paired comparison taste test, LSB+compound at pH 7.1 vs. 1% sucrose; type: in vivo; settings: 25 ppm compound in LSB
# Protocol: (§1) Test samples containing experimental compounds are presented in pairs to the panelist and they are asked to determine which of the sample is sweeter. […] A group of 10 to 16 or more panelists participated in each test. Subjects refrained from eating or drinking (except water) for at least 1 hour prior to the test. Subjects rinsed with water several times to clean the mouth.
# (§2) Taste tests were performed with sucrose or HFCS as the sweetener in the presence or absence of compound. A 0.2% stock solution of compound in water with sodium bicarbonate was prepared and then this stock solution was diluted in the final sample to achieve the targeted final concentration of compound. Taste samples were also prepared in a low sodium phosphate buffer (pH 7.1; “LSB”) lacking sucrose or HFCS to evaluate the taste of the compound alone. Low sodium phosphate buffer consists of 0.3 mM KCl, 0.5 mM Na2HPO4, and 0.175 mM KH2PO4. Sample volumes are usually 20 ml.
# (§3) In one paired comparison test, the panelist is presented with two different samples and asked to identify the sample which is sweeter. The samples within a paired comparison test are presented in a randomized, counterbalanced order. Panelists have up to a 1 minute delay between taste tests to clear the mouth of any tastes. […]
# human panelists [2] = assay: Enhancement of sucrose at pH 7.1: paired comparison taste test, 6% sucrose+compound vs. 10%, 11% or 12% sucrose; type: in vivo; settings: 10 ppm compound in 6% sucrose
# Protocol: as §1, §2, §3
# human panelists [3] = assay: Enhancement of sucrose at pH 2.8: paired comparison taste test, 6% sucrose+compound vs. 10%, 11% or 12% sucrose; type: in vivo
# Protocol: as §1, §2, §3
# human panelists [4] = assay: Enhancement of HFCS at pH 2.8: paired comparison taste test, 6% HFCS+compound vs. 8% or 9% HFCS; type: in vivo; settings: 20 ppm compound in 6% HFCS
# Protocol: as §1, §2, §3
melting point [°C],Compound,Sweetness of compound alone vs. 1% sucrose (human panelists [1]),Sucrose equivalence of 6% sucrose + compound (human panelists [2]),Sucrose equivalence of 6% sucrose + compound (human panelists [3]; 5 ppm compound in 6% sucrose),Sucrose equivalence of 6% sucrose + compound (human panelists [3]; 10 ppm compound in 6% sucrose),HFCS equivalence of 6% HFCS + compound (human panelists [4])
235 to 238,"CC(C)(COc1cccc2c1C(N)=NS(=O)(=O)N2)NC(=O)c1ccncc1 [Compound A1, N-(1-(4-amino-2,2-dioxide-1H-benzo[c][1,2,6]thiadiazin-5-yloxy)-2-methylpropan-2-yl)isonicotinamide]",25 ppm equivalent to 1% sucrose,10 ppm in 6% sucrose is equivalent to 10% sucrose,5 ppm in 6% sucrose is equivalent to 11% sucrose,10 ppm in 6% sucrose is equivalent to 12% sucrose,20 ppm in 6% HFCS is equivalent to 9% HFCS
238 to 240,"Cc1cc(C(=O)NC(C)(C)COc2cccc3c2C(N)=NS(=O)(=O)N3)ccn1 [Example 2, N-(1-((4-amino-2,2-dioxide-1H-benzo[c][1,2,6]thiadiazin-5-yl)oxy)-2-methylpropan-2-yl)-2-methylisonicotinamide]",,,,,
> 250,"NC1=NS(=O)(=O)Nc2cccc(OCC3(NC(=O)c4ccncc4)CCCC3)c21 [Example 9, N-(1-(((4-amino-2,2-dioxido-1H-benzo[c][1,2,6]thiadiazin-5-yl)oxy)methyl)cyclopentyl)isonicotinamide]",,,,,
